Experimental findings from PubChem BioAssay (NCI) are described below.

Values joined by “and” are separate entries in the source; they are usually repeats but may differ in a detail not shown here. Equal values may be shown once.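 Assay format: 96-well plates, 48-hour exposure. The concentration for 50% growth inhibition is given as GI50. The concentration for full growth arrest is given as TGI.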

In one experiment the test system is SK-MEL-28 melanoma. Put plainly: growth of human tumour cells (NCI), 48 h.
`Cc1cc2c(cc1C)[n+](=O)c(C(=O)CC(=O)C(=O)Nc1c(C(C)C)cccc1C(C)C)c(C)n2[O-]` displayed a TGI above 100 µM.
On the same count and under the same terms, for `COc1ccc2cc1Oc1ccc(cc1)CC1c3cc(c(OC)cc3CCN1C)Oc1c3c(cc4c1C(C2)N(C)CC4)OCO3` (configuration not stated) the value was 12.1 µM; for `COc1ccc(OC)c(NC(=O)C(=O)C(C(C)=O)c2nc3ccc(Cl)cc3[nH]c2=O)c1` (configuration not stated), above 50 µM; for `N#CC(C(=N/O)/C(=N/O)C(C#N)c1ccc(Cl)cc1)c1ccc(Cl)cc1` (configuration not stated), above 100 µM.

The test system of the next experiment is A498 renal. As to the kind of experiment: growth of human tumour cells (NCI), 48 h.
In the case of `CC1(Cl)C(=O)NC(=O)N(C2CC(N=[N+]=[N-])C(CO)O2)C1N=[N+]=[N-]` (configuration not stated), the TGI was above 100 µM.
`Cc1nc2cccc([N+](=O)[O-])c2c(NCCCN(C)C)c1C`: the TGI was above 54 µM.
`OCCC1(O)CCC(O)CC1` (configuration not stated) registered a TGI above 100 µM.
Regarding `CC(C)CC(=O)[O-].CC(C)CC(=O)[O-].N.N.N.N.[Co+3].[O-][Cl+3]([O-])([O-])[O-]`, the GI50 is above 100 µM and the TGI is above 100 µM.
The compound `CCCCN(CCCC)C(=O)C(=O)C(C#N)c1ccc(C)cc1` (configuration not stated) returned a TGI above 100 µM.
On the same count and under the same terms, the result for `CC(=O)Nc1ccccc1Sc1ccccc1` reads above 100 µM.
In turn, `COC(=O)C[C@H]1CCC2(OCCO2)[C@]1(C)C(=O)OC` showed a TGI above 100 µM.
Still for that read-out and setting: for `CCCCCCCCCC[C@@H](O)[C@@H]1CC[C@H]([C@H]2CC[C@@H]([C@@H](O)CCCCCCCCCC[C@H]3CC(CC(C)=O)C(=O)O3)O2)O1` (some centres not stated) the value was 71.9 µM.
Consider `C=C(CN1CCc2ccccc2C1)c1ccc(C(=O)Nc2cnccn2)cc1`, for which the GI50 is 33.4 µM and the TGI is above 100 µM.
`CCOc1ccc2c(c1)[n+]([O-])c(S(=O)(=O)c1ccc(C)cc1)c(N)[n+]2[O-]` displayed a TGI above 100 µM.
Still for that read-out and setting: the result for `CC12CC[C@@H](C(C)(C)O)C1[C@@H](O)CC1(C)C2CCC2[C@@]3(C)CC[C@H](O)C(C)(C)C3C(O)C[C@]21C` (some centres not stated) reads 32.3 µM; that for `CCOC(=O)NC(=O)c1cn(C2OC(COC(=O)CCCCCCCCC(=O)OCC3OC(n4cc(C(=O)NC(=O)OCC)c(=O)[nH]c4=O)C(O)C3O)C(O)C2O)c(=O)[nH]c1=O` (configuration not stated), above 100 µM; that for `Cc1ccc(C)c(NC(=O)CC/C(=N\NC(=O)C(=O)NN)C(C)C(=O)c2ccc(O)cc2)c1` (configuration not stated), above 100 µM.
Still for that read-out and setting: the result for `N=C1CSC2=NC3=C(CCC/C3=C\c3ccccc3)C(c3ccccc3)N12` (configuration not stated) reads 27.6 µM.
In the case of `COc1ccc(CNc2cc(OC)c(OC)c(OC)c2)cc1`, the TGI is above 83.4 µM.
With `COc1ccccc1C1C(C(=O)Nc2ccccc2)=C(C)NC(C)=C1C(=O)Nc1ccccc1`, the TGI worked out at 82.5 µM.
On the same count and under the same terms, the result for `CN(C(=O)C12C3C4C1C1C2C3C41C(=O)C(C)(C)C)C(C)(C)C` (configuration not stated) reads above 100 µM; that for `Cc1cc2c(cc1C)[n+](=O)c(C(=O)CC(=O)C(=O)Nc1c(C(C)C)cccc1C(C)C)c(C)n2[O-]`, above 100 µM; that for `COc1ccc(OC)c(NC(=O)C(=O)C(C(C)=O)c2nc3ccc(Cl)cc3[nH]c2=O)c1` (configuration not stated), above 50 µM.
Regarding `N#CC(C(=N/O)/C(=N/O)C(C#N)c1ccc(Cl)cc1)c1ccc(Cl)cc1` (configuration not stated), the TGI is above 100 µM.

A further experiment relates to NCI-H460 lung. Put plainly: growth of human tumour cells (NCI), 48 h.
`CC1(Cl)C(=O)NC(=O)N(C2CC(N=[N+]=[N-])C(CO)O2)C1N=[N+]=[N-]` (configuration not stated) displayed a TGI above 100 µM.
On the same count and under the same terms, the result for `COc1ccc2ccc3c(c2c1)CN1CCc2cc(OC)c(OC)cc2C1C3` (configuration not stated) reads above 100 µM.
Compound `Cc1nc2cccc([N+](=O)[O-])c2c(NCCCN(C)C)c1C` had a TGI above 59.6 µM.
With `OCCC1(O)CCC(O)CC1` (configuration not stated), the TGI is above 100 µM.
Still for that read-out and setting: the result for `CCCCNC1=C(C(=O)OCC)C(=O)CO1` reads above 100 µM.
With `CC(C)CC(=O)[O-].CC(C)CC(=O)[O-].N.N.N.N.[Co+3].[O-][Cl+3]([O-])([O-])[O-]`, the GI50 is above 100 µM and the TGI was above 100 µM.
As to `COC(=O)CC(=O)C[P+](c1ccccc1)(c1ccccc1)c1ccccc1`, the TGI was above 218 µM.
Same read-out and setting: the result for `CCCCN(CCCC)C(=O)C(=O)C(C#N)c1ccc(C)cc1` (configuration not stated) reads above 100 µM; that for `Cc1ccc(S(=O)(=O)C(CC(=O)N2CCCC2)C(=O)c2ccccc2)cc1` (configuration not stated), above 100 µM.
The same measure, in the same setting: the result for `CC1(C)CC(/C=C2/OC(=O)c3ccccc32)=C(C#N)C(=O)O1` reads above 100 µM.
On the same count and under the same terms, the result for `Cc1nc2c(nc1Cl)nc(Oc1ccc(Cl)cc1)c1ccccc12` reads above 100 µM; that for `CC(=O)Nc1ccccc1Sc1ccccc1`, above 100 µM.
As to `COC(=O)C[C@H]1CCC2(OCCO2)[C@]1(C)C(=O)OC`, the TGI was above 100 µM.
Still for that read-out and setting: the result for `CCCCCCCCCC[C@@H](O)[C@@H]1CC[C@H]([C@H]2CC[C@@H]([C@@H](O)CCCCCCCCCC[C@H]3CC(CC(C)=O)C(=O)O3)O2)O1` (some centres not stated) reads above 100 µM.
With `C=C(CN1CCc2ccccc2C1)c1ccc(C(=O)Nc2cnccn2)cc1`, the GI50 was 36.3 µM and the TGI was above 100 µM.
As to `CCOc1ccc2c(c1)[n+]([O-])c(S(=O)(=O)c1ccc(C)cc1)c(N)[n+]2[O-]`, the TGI was above 100 µM.
Regarding `CC12CC[C@@H](C(C)(C)O)C1[C@@H](O)CC1(C)C2CCC2[C@@]3(C)CC[C@H](O)C(C)(C)C3C(O)C[C@]21C` (some centres not stated), the TGI was 37.5 µM.
Same read-out and setting: for `CCOC(=O)NC(=O)c1cn(C2OC(COC(=O)CCCCCCCCC(=O)OCC3OC(n4cc(C(=O)NC(=O)OCC)c(=O)[nH]c4=O)C(O)C3O)C(O)C2O)c(=O)[nH]c1=O` (configuration not stated) the value was above 100 µM; for `Cc1ccc(C)c(NC(=O)CC/C(=N\NC(=O)C(=O)NN)C(C)C(=O)c2ccc(O)cc2)c1` (configuration not stated), above 100 µM.
Still for that read-out and setting: for `N=C1CSC2=NC3=C(CCC/C3=C\c3ccccc3)C(c3ccccc3)N12` (configuration not stated) the value was 14.7 µM; for `COc1ccc(CNc2cc(OC)c(OC)c(OC)c2)cc1`, above 30 µM.
On the same count and under the same terms, the result for `COc1ccccc1C1C(C(=O)Nc2ccccc2)=C(C)NC(C)=C1C(=O)Nc1ccccc1` reads above 100 µM; that for `OCc1ccc2[n+](c1)CCC1c3ccccc3NC21` (configuration not stated), above 300 µM.
Regarding `COc1cccc(-c2cc(=O)c3cc(N(C)C)ccc3[nH]2)c1`, the GI50 was 0.0342 µM and 0.0169 µM.
As to `CCCCCCCCCCCC(=O)CC(=O)c1c(O)cccc1O`, the TGI came out at 35.7 µM.
On the same count and under the same terms, for `Cc1cc2c(cc1C)[n+](=O)c(C(=O)CC(=O)C(=O)Nc1c(C(C)C)cccc1C(C)C)c(C)n2[O-]` the value was above 100 µM; for `COc1ccc2cc1Oc1ccc(cc1)CC1c3cc(c(OC)cc3CCN1C)Oc1c3c(cc4c1C(C2)N(C)CC4)OCO3` (configuration not stated), 28.4 µM.
Same read-out and setting: the result for `COc1ccc(OC)c(NC(=O)C(=O)C(C(C)=O)c2nc3ccc(Cl)cc3[nH]c2=O)c1` (configuration not stated) reads above 50 µM; that for `N#CC(C(=N/O)/C(=N/O)C(C#N)c1ccc(Cl)cc1)c1ccc(Cl)cc1` (configuration not stated), above 100 µM.

The next experiment deals with IGROV1 ovarian. As to the kind of experiment: growth of human tumour cells (NCI), 48 h.
With `CC1(Cl)C(=O)NC(=O)N(C2CC(N=[N+]=[N-])C(CO)O2)C1N=[N+]=[N-]` (configuration not stated), the TGI was above 100 µM.
Compound `COc1ccc2ccc3c(c2c1)CN1CCc2cc(OC)c(OC)cc2C1C3` (configuration not stated) showed a TGI above 100 µM.
Still for that read-out and setting: for `Cc1nc2cccc([N+](=O)[O-])c2c(NCCCN(C)C)c1C` the value was above 100 µM.
The compound `OCCC1(O)CCC(O)CC1` (configuration not stated) had a TGI above 100 µM.
Same read-out and setting: for `CCCCNC1=C(C(=O)OCC)C(=O)CO1` the value was above 100 µM.
